# Experimental data from ChEMBL document CHEMBL1201862, “PubChem BioAssay data set” (2004).
#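 Interpolation was linear, between the two tested concentrations surrounding the appropriate level; five concentrations were tested over 48 hours in 96-well plates. Here, GI50 denotes the concentration required for 50% inhibition of growth.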 Activity calls are given as the source filed them. Cut-off read from the data, not from the text of the source: active = GI50 up to about 1.1 µM and inactive = higher.
# How the values were obtained:
# Experiment in all cases: inhibition of tumour cell growth, NCI panel, 48 h
# RXF 631 = test system: RXF 631
# SW-620 = test system: SW-620
# RPMI-8226 = test system: RPMI-8226
# HCC 2998 = test system: HCC 2998
# K562 = test system: K562
# SF-539 = test system: SF-539
# SNB-75 = test system: SNB-75
# EKVX = test system: EKVX
# UO-31 = test system: UO-31
# A498 = test system: A498
# DLD-1 = test system: DLD-1
# LXFL 529 = test system: LXFL 529
# SK-MEL-28 = test system: SK-MEL-28
# M14 = test system: M14
# OVCAR-8 = test system: OVCAR-8
# SK-MEL-5 = test system: SK-MEL-5
# TK-10 = test system: TK-10
# LOX IMVI = test system: LOX IMVI
# HL-60 = test system: HL-60
# MOLT-4 = test system: MOLT-4
# SK-OV-3 = test system: SK-OV-3
# 786-0 = test system: 786-0
# M19-MEL = test system: M19-MEL
# A549 = test system: A549
# CCRF-CEM = test system: CCRF-CEM
# IGROV-1 = test system: IGROV-1
# HOP-18 = test system: HOP-18
# OVCAR-3 = test system: OVCAR-3
# HT-29 = test system: HT-29
# SN12C = test system: SN12C
# COLO 205 = test system: COLO 205
# HCT-15 = test system: HCT-15
# SK-MEL-2 = test system: SK-MEL-2
# SNB-19 = test system: SNB-19
# SF-295 = test system: SF-295
# NCI-H226 = test system: NCI-H226
# DMS-273 = test system: DMS-273
# UACC-62 = test system: UACC-62
# KM12 = test system: KM12
# DMS-114 = test system: DMS-114
# SNB-78 = test system: SNB-78
# NCI-H23 = test system: NCI-H23
# SR = test system: SR
# NCI-H522 = test system: NCI-H522
# HOP-92 = test system: HOP-92
# Malme-3M = test system: Malme-3M
# UACC-257 = test system: UACC-257
# NCI-H460 = test system: NCI-H460
# HCT-116 = test system: HCT-116
# HOP-62 = test system: HOP-62
# OVCAR-4 = test system: OVCAR-4
# KM-20L2 = test system: KM-20L2
# CAKI-1 = test system: CAKI-1
# ACHN = test system: ACHN
# SF-268 = test system: SF-268
# U-251 = test system: U-251
# OVCAR-5 = test system: OVCAR-5
smiles,measurement,setting,value
COc1cc2c(c3oc(-c4ccc5c(c4)OCO5)c(O)c(=O)c13)CCC(C)(C)O2,GI50,RXF 631,> 100 µM (inactive)
same,GI50,SW-620,> 100 µM (inactive)
same,GI50,RPMI-8226,34.5 µM (inactive)
same,GI50,HCC 2998,> 100 µM (inactive)
same,GI50,K562,> 100 µM (inactive)
same,GI50,SF-539,> 100 µM (inactive)
same,GI50,SNB-75,12.3 µM (inactive)
same,GI50,EKVX,> 100 µM (inactive)
same,GI50,UO-31,> 100 µM (inactive)
same,GI50,A498,> 100 µM (inactive)
same,GI50,DLD-1,> 100 µM (inactive)
same,GI50,LXFL 529,22.9 µM (inactive)
same,GI50,SK-MEL-28,> 100 µM (inactive)
same,GI50,M14,> 100 µM (inactive)
same,GI50,OVCAR-8,> 100 µM (inactive)
same,GI50,SK-MEL-5,> 100 µM (inactive)
same,GI50,TK-10,> 100 µM (inactive)
same,GI50,LOX IMVI,> 100 µM (inactive)
same,GI50,HL-60,> 100 µM (inactive)
same,GI50,MOLT-4,> 100 µM (inactive)
same,GI50,SK-OV-3,> 100 µM (inactive)
same,GI50,786-0,> 100 µM (inactive)
same,GI50,M19-MEL,> 100 µM (inactive)
same,GI50,A549,> 100 µM (inactive)
same,GI50,CCRF-CEM,79.8 µM (inactive)
same,GI50,IGROV-1,> 100 µM (inactive)
same,GI50,HOP-18,> 100 µM (inactive)
same,GI50,OVCAR-3,> 100 µM (inactive)
same,GI50,HT-29,> 100 µM (inactive)
same,GI50,SN12C,> 100 µM (inactive)
same,GI50,COLO 205,> 100 µM (inactive)
same,GI50,HCT-15,> 100 µM
same,GI50,SK-MEL-2,> 100 µM (inactive)
same,GI50,SNB-19,> 100 µM (inactive)
same,GI50,SF-295,> 100 µM (inactive)
same,GI50,NCI-H226,> 100 µM (inactive)
same,GI50,DMS-273,> 100 µM (inactive)
same,GI50,UACC-62,> 100 µM (inactive)
same,GI50,KM12,> 100 µM (inactive)
same,GI50,DMS-114,> 100 µM (inactive)
same,GI50,SNB-78,> 100 µM (inactive)
same,GI50,NCI-H23,> 100 µM (inactive)
O=C(Nc1nnc(S)[nH]1)C(=O)C1C(=O)Nc2ccccc2[S+]1[O-] (stereo unspecified),GI50,RXF 631,> 100 µM (inactive)
same,GI50,SW-620,> 100 µM (inactive)
same,GI50,SR,> 100 µM (inactive)
same,GI50,HCC 2998,> 100 µM (inactive)
same,GI50,SF-539,> 100 µM (inactive)
same,GI50,SNB-75,> 100 µM (inactive)
same,GI50,EKVX,> 100 µM (inactive)
same,GI50,UO-31,> 100 µM (inactive)
same,GI50,LXFL 529,> 100 µM (inactive)
same,GI50,SK-MEL-28,> 100 µM (inactive)
same,GI50,M14,> 100 µM (inactive)
same,GI50,OVCAR-8,> 100 µM (inactive)
same,GI50,NCI-H522,> 100 µM (inactive)
same,GI50,SK-MEL-5,> 100 µM (inactive)
same,GI50,HOP-92,> 100 µM (inactive)
same,GI50,TK-10,> 100 µM (inactive)
same,GI50,LOX IMVI,> 100 µM (inactive)
same,GI50,HL-60,> 100 µM (inactive)
same,GI50,Malme-3M,> 100 µM (inactive)
same,GI50,MOLT-4,> 100 µM (inactive)
same,GI50,SK-OV-3,> 100 µM (inactive)
same,GI50,786-0,> 100 µM (inactive)
same,GI50,UACC-257,> 100 µM (inactive)
same,GI50,M19-MEL,> 100 µM (inactive)
same,GI50,A549,> 100 µM (inactive)
same,GI50,CCRF-CEM,> 100 µM (inactive)
same,GI50,IGROV-1,> 100 µM (inactive)
same,GI50,NCI-H460,> 100 µM (inactive)
same,GI50,HOP-18,> 100 µM (inactive)
same,GI50,OVCAR-3,> 100 µM (inactive)
same,GI50,HCT-116,> 100 µM (inactive)
same,GI50,HT-29,> 100 µM (inactive)
same,GI50,SN12C,> 100 µM (inactive)
same,GI50,COLO 205,> 100 µM (inactive)
same,GI50,HCT-15,> 100 µM
same,GI50,SNB-19,> 100 µM (inactive)
same,GI50,HOP-62,> 100 µM (inactive)
same,GI50,OVCAR-4,> 100 µM (inactive)
same,GI50,SF-295,> 100 µM (inactive)
same,GI50,DMS-273,> 100 µM (inactive)
same,GI50,UACC-62,> 100 µM (inactive)
same,GI50,KM12,> 100 µM (inactive)
same,GI50,KM-20L2,> 100 µM (inactive)
same,GI50,CAKI-1,> 100 µM (inactive)
same,GI50,ACHN,> 100 µM (inactive)
same,GI50,DMS-114,> 100 µM (inactive)
same,GI50,SF-268,> 100 µM (inactive)
same,GI50,NCI-H23,> 100 µM (inactive)
O=C(Nc1cccs1)c1c(O)[nH]c(=S)[nH]c1=O,GI50,RXF 631,> 100 µM (inactive)
same,GI50,SW-620,> 100 µM (inactive)
same,GI50,RPMI-8226,> 100 µM (inactive)
same,GI50,SR,> 100 µM (inactive)
same,GI50,K562,> 100 µM (inactive)
same,GI50,SF-539,> 100 µM (inactive)
same,GI50,UO-31,> 100 µM (inactive)
same,GI50,A498,> 100 µM (inactive)
same,GI50,DLD-1,> 100 µM (inactive)
same,GI50,SK-MEL-28,> 100 µM (inactive)
same,GI50,M14,> 100 µM (inactive)
same,GI50,OVCAR-8,> 100 µM (inactive)
same,GI50,NCI-H522,> 100 µM (inactive)
same,GI50,SK-MEL-5,> 100 µM (inactive)
same,GI50,HOP-92,> 100 µM (inactive)
same,GI50,TK-10,> 100 µM (inactive)
same,GI50,LOX IMVI,> 100 µM (inactive)
same,GI50,MOLT-4,> 100 µM (inactive)
same,GI50,SK-OV-3,> 100 µM (inactive)
same,GI50,786-0,> 100 µM (inactive)
same,GI50,UACC-257,> 100 µM (inactive)
same,GI50,A549,> 100 µM (inactive)
same,GI50,CCRF-CEM,> 100 µM (inactive)
same,GI50,IGROV-1,> 100 µM (inactive)
same,GI50,NCI-H460,> 100 µM (inactive)
same,GI50,HOP-18,> 100 µM (inactive)
same,GI50,OVCAR-3,> 100 µM (inactive)
same,GI50,SN12C,> 100 µM (inactive)
same,GI50,COLO 205,> 100 µM (inactive)
same,GI50,HCT-15,> 100 µM
same,GI50,SK-MEL-2,> 100 µM (inactive)
same,GI50,SNB-19,> 100 µM (inactive)
same,GI50,HOP-62,> 100 µM (inactive)
same,GI50,OVCAR-4,> 100 µM (inactive)
same,GI50,SF-295,> 100 µM (inactive)
same,GI50,NCI-H226,> 100 µM (inactive)
same,GI50,UACC-62,> 100 µM (inactive)
same,GI50,U-251,> 100 µM (inactive)
same,GI50,KM12,> 100 µM (inactive)
same,GI50,KM-20L2,> 100 µM (inactive)
same,GI50,CAKI-1,> 100 µM (inactive)
same,GI50,OVCAR-5,> 100 µM (inactive)
same,GI50,ACHN,> 100 µM (inactive)
same,GI50,DMS-114,> 100 µM (inactive)
same,GI50,SF-268,> 100 µM (inactive)
same,GI50,NCI-H23,> 100 µM (inactive)
